Data as given in ChEMBL document CHEMBL1201862, “PubChem BioAssay data set” (2004).
Activity calls are given as the source filed them.

Experiments:
Assay type in all cases: functional
[1] = target: T1, Short transient receptor potential channel 4 (Mus musculus, UniProt Q9QUQ5); experiment: block of DAMGO-driven TRPC4 calcium entry – cell-based, HEK293 TRPC4/mu-opioid, Fluo-4 calcium, dose response (AID 434942);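 note: potency of inhibitors blocking the TRPC4 calcium response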
T1 sequence (Q9QUQ5 whole entry): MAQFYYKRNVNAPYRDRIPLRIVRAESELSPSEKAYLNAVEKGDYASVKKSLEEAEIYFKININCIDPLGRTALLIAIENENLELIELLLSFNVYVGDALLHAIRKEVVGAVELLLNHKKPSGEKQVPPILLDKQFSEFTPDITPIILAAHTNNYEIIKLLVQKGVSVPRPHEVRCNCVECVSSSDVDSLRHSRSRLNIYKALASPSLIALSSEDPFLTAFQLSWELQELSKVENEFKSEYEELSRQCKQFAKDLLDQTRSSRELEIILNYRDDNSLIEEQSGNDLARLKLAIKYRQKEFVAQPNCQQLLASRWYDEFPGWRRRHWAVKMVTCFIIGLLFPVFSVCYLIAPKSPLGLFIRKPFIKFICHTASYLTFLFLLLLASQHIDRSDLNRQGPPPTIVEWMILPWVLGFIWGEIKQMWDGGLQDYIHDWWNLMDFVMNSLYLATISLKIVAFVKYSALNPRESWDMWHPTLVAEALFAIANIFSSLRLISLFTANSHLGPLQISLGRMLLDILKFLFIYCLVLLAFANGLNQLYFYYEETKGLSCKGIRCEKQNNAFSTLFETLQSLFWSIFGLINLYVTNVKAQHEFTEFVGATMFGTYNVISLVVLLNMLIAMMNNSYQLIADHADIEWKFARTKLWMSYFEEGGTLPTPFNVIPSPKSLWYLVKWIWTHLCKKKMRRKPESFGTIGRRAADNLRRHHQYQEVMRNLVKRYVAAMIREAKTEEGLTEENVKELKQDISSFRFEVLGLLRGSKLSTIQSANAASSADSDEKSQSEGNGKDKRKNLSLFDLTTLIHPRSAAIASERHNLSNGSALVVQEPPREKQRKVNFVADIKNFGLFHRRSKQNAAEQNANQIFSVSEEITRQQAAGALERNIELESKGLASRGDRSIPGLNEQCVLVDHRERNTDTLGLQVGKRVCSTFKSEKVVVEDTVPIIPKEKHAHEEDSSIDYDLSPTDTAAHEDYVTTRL

[2] = viability of PTEN-deleted HCT116 cells – cell-based, HCT116 PTEN knockout, dose response (AID 1047);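 note: HCT116 colon tumor cells with PTEN knocked out; cells exposed to compound for 60 hours before readout; potency for loss of cell viability measured by luminescence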
[3] = Luminescence Cell-Based Dose Retest to Confirm Inhibitors of Cancer Stem Cells. [Related pubchem assays (depositor defined):AID2717, AID2721]; conditions: Homo sapiens
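Throughout, for AC50: cells exposed to compound for roughly 70 hours or longer before luminescence read.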

Row | SMILES | EC50 [1] | EC50 [2] | AC50 [3]
1 | O=[N+]([O-])c1ccc(O)c(C2=NNC(c3ccccc3F)C2)c1 (stereo not drawn) | 15 µM (active) | – | –
2 | Cc1oc2c(c1C(=O)N1CCC(C)CC1)C(=O)c1ccccc1C2=O | – | 1.92 µM (active) | 6.94 µM (active)
